From US20100022531A1, “NOVEL COMPOUNDS AS P2X7 MODULATORS AND USES THEREOF” (RENOVIS, INC., priority 2005, published 2010)

Target: T1, P2X7 receptor (Homo sapiens, UniProt Q99572)
T1 construct: host or cells: THP-1 cells differentiated with LPS and IFN-γ
T1 sequence (Q99572 1-595): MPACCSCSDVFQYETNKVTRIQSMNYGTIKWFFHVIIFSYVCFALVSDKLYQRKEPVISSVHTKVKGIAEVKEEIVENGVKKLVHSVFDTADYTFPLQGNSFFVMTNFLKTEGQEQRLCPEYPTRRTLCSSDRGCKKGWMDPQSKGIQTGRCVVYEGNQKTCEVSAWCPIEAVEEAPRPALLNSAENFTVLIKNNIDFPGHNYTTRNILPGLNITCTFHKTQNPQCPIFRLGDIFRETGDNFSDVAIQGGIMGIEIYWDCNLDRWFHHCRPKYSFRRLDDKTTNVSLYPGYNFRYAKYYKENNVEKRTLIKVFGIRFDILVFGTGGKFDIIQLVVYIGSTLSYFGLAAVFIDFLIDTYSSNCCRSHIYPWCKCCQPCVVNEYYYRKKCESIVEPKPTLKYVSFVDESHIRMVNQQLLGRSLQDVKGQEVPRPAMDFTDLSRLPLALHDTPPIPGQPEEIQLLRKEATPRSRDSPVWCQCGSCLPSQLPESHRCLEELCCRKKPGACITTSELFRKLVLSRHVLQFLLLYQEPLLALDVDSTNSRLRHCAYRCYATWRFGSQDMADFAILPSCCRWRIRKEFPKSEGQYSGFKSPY
Assay: Alternate method for IL-1β release assay (differentiated THP-1 cells, BzATP-stimulated, ELISA)
Assay type: cell-based
Conditions: P2X7; 0.1 μM compound (symbols + to ++++); read-out: IL-1β % inhib @ 0.1 μM
In short: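 After 16 h differentiation with 100 ng/mL LPS and 100 ng/mL IFN-γ plus a further 2 h LPS priming, THP-1 cells were pretreated 30 min with compound, then stimulated with 250 uM BzATP (final) for 45 min. Supernatant IL-1β measured by ELISA; percent inhibition from background-adjusted levels versus untreated cells.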

Compound | inhibition at 0.1 µM [%]
c1cc(CN2CCc3c(ncnc3NCC34CC5CC(CC(C5)C3)C4)C2)c2c(c1)OCO2 [Compound 207] | > 75
O=C(COc1cccc(Cl)c1)N1CCc2c(ncnc2NCC23CC4CC(CC(C4)C2)C3)C1 [Compound 248, 1-{4-[(Adamantan-1-ylmethyl)-amino]-5,8-dihydro-6H-pyrido[3,4-d]pyrimidin-7-yl}-2-(3-chloro-phenoxy)-ethanone] | > 75
O=C(C1CCOC1)N1CCc2c(ncnc2NCC23CC4CC(CC(C4)C2)C3)C1 (centres unmarked) [Compound 249, {4-[(Adamantan-1-ylmethyl)-amino]-5,8-dihydro-6H-pyrido[3,4-d]pyrimidin-7-yl}-(tetrahydro-furan-3-yl)-methanone] | 0 to 25
O=C(O[C@@H]1CCOC1)N1CCc2c(ncnc2NCC23CC4CC(CC(C4)C2)C3)C1 [Compound 250, 4-[(Adamantan-1-ylmethyl)-amino]-5,8-dihydro-6H-pyrido[3,4-d]pyrimidine-7-carboxylic acid (R)-(tetrahydro-furan-3-yl)ester] | 0 to 25

Same assay, conditions: P2X7; 0.3 μM compound (asterisk symbols); read-out: IL-1β % inhib @ 0.3 μM

Compound | inhibition at 0.3 µM [%]
N#Cc1cccc(CN2CCc3c(ncnc3NCC34CC5CC(CC(C5)C3)C4)C2)c1 [Compound 182] | > 75
CC1(C)C2CC=C(CN3CCc4c(ncnc4NCC45CC6CC(CC(C6)C4)C5)C3)C1C2 (centres unmarked) [Compound 184] | > 75
c1ccc(Oc2ccc(CN3CCc4c(ncnc4NCC45CC6CC(CC(C6)C4)C5)C3)cc2)cc1 [Compound 187] | 50 to 75
CCCCN1CCc2c(ncnc2NCC23CC4CC(CC(C4)C2)C3)C1 [Compound 189] | 0 to 25
CCN1CCc2c(ncnc2NCC23CC4CC(CC(C4)C2)C3)C1 [Compound 190] | 25 to 50
CCC(CC)CN1CCc2c(ncnc2NCC23CC4CC(CC(C4)C2)C3)C1 [Compound 192] | > 75
CCCC(C)CN1CCc2c(ncnc2NCC23CC4CC(CC(C4)C2)C3)C1 (centres unmarked) [Compound 193] | > 75
CC(C)CCN1CCc2c(ncnc2NCC23CC4CC(CC(C4)C2)C3)C1 [Compound 194] | 25 to 50
COc1cccc(CN2CCc3c(ncnc3NCC34CC5CC(CC(C5)C3)C4)C2)c1 [Compound 195] | > 75
Cc1ccc(CN2CCc3c(ncnc3NCC34CC5CC(CC(C5)C3)C4)C2)cc1C [Compound 196] | 0 to 25
COc1ccc(CN2CCc3c(ncnc3NCC34CC5CC(CC(C5)C3)C4)C2)c(Cl)c1OC [Compound 197] | 0 to 25

Same assay, conditions: P2X7; 0.3 μM compound (symbols * to ****); read-out: IL-1β % inhib @ 0.3 μM

Compound | inhibition at 0.3 µM [%]
Brc1cc2c(cc1CN1CCc3c(ncnc3NCC34CC5CC(CC(C5)C3)C4)C1)OCO2 [Compound 198] | 0 to 25
COc1cc(CN2CCc3c(ncnc3NCC34CC5CC(CC(C5)C3)C4)C2)ccc1OCc1ccccc1 [Compound 199] | 0 to 25
c1nc2c(c(NCC34CC5CC(CC(C5)C3)C4)n1)CCN(Cc1ccc3c(c1)OCCO3)C2 [Compound 200] | 0 to 25
Clc1ccc(CN2CCc3c(ncnc3NCC34CC5CC(CC(C5)C3)C4)C2)cc1Cl [Compound 201] | 0 to 25
COc1cccc(CN2CCc3c(ncnc3NCC34CC5CC(CC(C5)C3)C4)C2)c1OC [Compound 202] | > 75
COc1ccc(CN2CCc3c(ncnc3NCC34CC5CC(CC(C5)C3)C4)C2)cc1OCc1ccccc1 [Compound 203] | 0 to 25
COc1ccc(CN2CCc3c(ncnc3NCC34CC5CC(CC(C5)C3)C4)C2)cc1O [Compound 204] | 0 to 25
COc1cc(CN2CCc3c(ncnc3NCC34CC5CC(CC(C5)C3)C4)C2)cc(Br)c1OC [Compound 205] | 0 to 25
N#Cc1cc(CN2CCc3c(ncnc3NCC34CC5CC(CC(C5)C3)C4)C2)ccc1F [Compound 206] | > 75
Brc1ccc(CN2CCc3c(ncnc3NCC34CC5CC(CC(C5)C3)C4)C2)cc1 [Compound 208] | > 75
Clc1cccc(CN2CCc3c(ncnc3NCC34CC5CC(CC(C5)C3)C4)C2)c1 [Compound 209] | 0 to 25
Clc1cc2c(cc1CN1CCc3c(ncnc3NCC34CC5CC(CC(C5)C3)C4)C1)OCO2 [Compound 210] | 0 to 25
CC(C)(C)CN1CCc2c(ncnc2NCC23CC4CC(CC(C4)C2)C3)C1 [Compound 211] | > 75
Clc1ccc(CN2CCc3c(ncnc3NCC34CC5CC(CC(C5)C3)C4)C2)cc1 [Compound 212] | > 75
N#Cc1ccc(CN2CCc3c(ncnc3NCC34CC5CC(CC(C5)C3)C4)C2)cc1 [Compound 214] | 25 to 50
FC(F)(F)c1ccc(CN2CCc3c(ncnc3NCC34CC5CC(CC(C5)C3)C4)C2)cc1 [Compound 215] | 0 to 25
Fc1cccc(CN2CCc3c(ncnc3NCC34CC5CC(CC(C5)C3)C4)C2)c1 [Compound 216] | > 75
Cc1cccc(CN2CCc3c(ncnc3NCC34CC5CC(CC(C5)C3)C4)C2)c1 [Compound 217] | > 75
Fc1ccc(CN2CCc3c(ncnc3NCC34CC5CC(CC(C5)C3)C4)C2)cc1 [Compound 218] | > 75
COc1ccc(CN2CCc3c(ncnc3NCC34CC5CC(CC(C5)C3)C4)C2)c(OC)c1 [Compound 219] | 0 to 25
Fc1ccc(CN2CCc3c(ncnc3NCC34CC5CC(CC(C5)C3)C4)C2)c(F)c1 [Compound 220] | > 75
c1cc(CN2CCc3c(ncnc3NCC34CC5CC(CC(C5)C3)C4)C2)ccn1 [Compound 221] | > 75
Fc1cc(CN2CCc3c(ncnc3NCC34CC5CC(CC(C5)C3)C4)C2)ccc1Cl [Compound 222] | > 75
Fc1cc(C(F)(F)F)ccc1CN1CCc2c(ncnc2NCC23CC4CC(CC(C4)C2)C3)C1 [Compound 223] | > 75

Compound | inhibition at 0.3 µM [%]
Brc1ccc(CN2CCc3c(ncnc3NCC34CC5CC(CC(C5)C3)C4)C2)cn1 [Compound 224] | 0 to 25
Brc1cccc(CN2CCc3c(ncnc3NCC34CC5CC(CC(C5)C3)C4)C2)c1 [Compound 225] | > 75
COc1ccccc1CN1CCc2c(ncnc2NCC23CC4CC(CC(C4)C2)C3)C1 [Compound 226] | > 75
CC(=O)Nc1ccc(CN2CCc3c(ncnc3NCC34CC5CC(CC(C5)C3)C4)C2)cc1 [Compound 227] | 0 to 25
Brc1ccccc1CN1CCc2c(ncnc2NCC23CC4CC(CC(C4)C2)C3)C1 [Compound 228] | 0 to 25
Fc1ccc(Br)cc1CN1CCc2c(ncnc2NCC23CC4CC(CC(C4)C2)C3)C1 [Compound 229] | 0 to 25
c1nc2c(c(NCC34CC5CC(CC(C5)C3)C4)n1)CCN(CC1CCCC1)C2 [Compound 230] | > 75
FC(F)(F)Oc1ccc(CN2CCc3c(ncnc3NCC34CC5CC(CC(C5)C3)C4)C2)cc1 [Compound 231] | 0 to 25
FC(F)Oc1ccc(CN2CCc3c(ncnc3NCC34CC5CC(CC(C5)C3)C4)C2)cc1 [Compound 232] | 0 to 25
Fc1ccc(COc2ccc(CN3CCc4c(ncnc4NCC45CC6CC(CC(C6)C4)C5)C3)cc2)cc1 [Compound 233] | 0 to 25
COc1cc(F)c(CN2CCc3c(ncnc3NCC34CC5CC(CC(C5)C3)C4)C2)cc1OC [Compound 234] | 0 to 25
COc1cc(F)c(CN2CCc3c(ncnc3NCC34CC5CC(CC(C5)C3)C4)C2)c(F)c1 [Compound 235] | 0 to 25
CCOc1cccc(CN2CCc3c(ncnc3NCC34CC5CC(CC(C5)C3)C4)C2)c1 [Compound 236] | 50 to 75
FC1(F)Oc2ccc(CN3CCc4c(ncnc4NCC45CC6CC(CC(C6)C4)C5)C3)cc2O1 [Compound 238] | 0 to 25
COc1ccc(F)c(CN2CCc3c(ncnc3NCC34CC5CC(CC(C5)C3)C4)C2)c1 [Compound 239] | 0 to 25
COc1cc(CN2CCc3c(ncnc3NCC34CC5CC(CC(C5)C3)C4)C2)ccc1F [Compound 240] | > 75
CCOc1ccc(CN2CCc3c(ncnc3NCC34CC5CC(CC(C5)C3)C4)C2)cc1 [Compound 241] | > 75
COc1ccc(OC)c(CN2CCc3c(ncnc3NCC34CC5CC(CC(C5)C3)C4)C2)c1 [Compound 242] | > 75
FC(F)(F)Oc1cccc(CN2CCc3c(ncnc3NCC34CC5CC(CC(C5)C3)C4)C2)c1 [Compound 243] | > 75
COc1cc(CN2CCc3c(ncnc3NCC34CC5CC(CC(C5)C3)C4)C2)cc(OC)c1 [Compound 244] | > 75
Clc1ccc(CN2CCc3c(ncnc3NCC34CC5CC(CC(C5)C3)C4)C2)cn1 [Compound 245] | > 75
Fc1cc(Cl)ccc1CN1CCc2c(ncnc2NCC23CC4CC(CC(C4)C2)C3)C1 [Compound 246] | > 75
CC12CC3(C)CC(C)(C1)CC(CNc1ncnc4c1CCN(Cc1ccccc1)C4)(C2)C3 [Compound 247] | 25 to 50
